From article PMC5513091, “A novel Alzheimer’s disease drug candidate targeting inflammation and fatty acid metabolism” (Alzheimer's Research & Therapy, 2017)

Tests used:
[1] = Free feeding CAD-31 plasma and brain levels in mice; format: in vivo
Procedure: Sprague-Dawley rats had free access to food and water. CAD-31 was given by gavage to rats at 20 mg/kg in corn oil and intravenously in 15% HS 15/PBS. Whole-blood samples were collected from the jugular vein at every time point and brain collected after 20-ml saline perfusion. CAD-31 was extracted with acetonitrile and compared with standards on a TSQ Quantiva™ Triple Quadrupole Mass Spectrometer (Thermo Scientific, Waltham, MA, USA). For the mouse feeding studies, mice had free access to food containing 200 ppm CAD-31. Blood was collected by heart puncture, and the brain concentration was determined as with rats.

[2] = system: human neural precursor cells (NPCs); design: method as in PMID 27149904; settings: compared with J147; cited from earlier work
[3] = system: APPswe/PS1∆E9 transgenic mice; assay: Two-day water maze; format: in vivo; settings: AD mice fed 200 ppm in chow for 3 months from 10 months of age; day 2
Procedure: The APPswe/PS1∆E9-transgenic mice were characterized previously. Line 85 mice carry two transgenes, the mouse/human chimeric APPswe, linked to Swedish familial AD and human PS1∆E9. At 10 months of age, female transgenic mice were fed a defined diet (Harlan Teklad; Envigo, Indianapolis, IN, USA) with and without CAD-31 (200 ppm, approximately 10 mg/kg/day). Treatment continued for 3 months, followed by behavior testing and tissue harvesting.
Spatial memory was determined using the 2-day water maze with 13-month-old APPswe/PS1∆E9 transgenic mice fed CAD-31 for the previous 3 months. The protocol was adapted from a publication by Gulinello and colleagues. The goal platform was positioned 45 cm from the outside wall in the northwest quadrant of the maze. Day 1 involved training the mice (n = 10 per group) to find the platform using cues located around the pool within a 180-second time frame. This training involved a series of visible platform trials where mice were tracked using EthoVision software (Noldus Information Technology, Leesburg, VA, USA). […] The time it took each mouse to find the hidden platform was measured as escape latency. All trials were recorded using the EthoVision software, and statistics were computed using InStat software (GraphPad Software, La Jolla, CA, USA) by an individual blinded to the experiment.

hERG = hERG (Homo sapiens, UniProt Q12809); assay: hERG assay
protein kinases = assay: Protein Kinase Screen; format: binding
Text: Before undertaking animal experiments, it is important to determine if a new drug candidate has a chance for further clinical development by determining its pharmacological properties of bioavailability and brain penetrance as well as predicted safety.

CYP 2Cb = CYP 2Cb (Homo sapiens, UniProt P11712); assay: CYP inhibition; format: in vitro ADME
[4] = system: hippocampal gene expression; assay: Whole-transcriptome RNA-sequencing of hippocampus; format: in vivo, mice
Procedure: RNA was isolated from the hippocampus using the RNeasy Plus Universal Mini Kit (QIAGEN, Valencia, CA, USA). RNA sequencing (RNA-seq) libraries were prepared using the TruSeq Stranded mRNA Sample Prep Kit (Illumina, San Diego, CA, USA) according to the manufacturer’s instructions. Briefly, polyadenylation RNA was selected using oligo(dT) beads. Messenger RNA was then fragmented and reverse-transcribed. Complementary DNA (cDNA) was end-repaired, adenylated, and ligated with Illumina adapters with indexes. Adapter-ligated cDNA was then amplified. Libraries were pooled and sequenced single-end 50 bp on the HiSeq 2500 platform (Illumina). Sequencing reads were quality-tested using FastQC and aligned to the mm10 mouse genome using STAR Aligner version 2.4k. Mapping was carried out using default parameters (up to ten mismatches per read and up to nine multimapping locations per read). Raw gene expression was quantified across all gene exons by RNA-seq using the top-expressed isoform as a proxy for gene expression, and differential gene expression was carried out using the edge R package version 3.6.8, using replicates to compute within-group dispersion. p Values are adjusted to control the false discovery rate (FDR) by the method of Benjamini and Hochberg. Differentially expressed genes were defined as having an FDR <0.05 and a log2 fold change >1. […]

primary cortical neurons = assay: Oxytosis; format: cell-based; settings: Primary cortical neuron; read-out: Half-maximal effective concentration, Oxytosis
Procedure: The various phenotypic screening assays were conducted as previously described. Briefly, HT-22, primary cortical neurons, or MC65 was plated and exposed to the different environmental stresses. Cells were treated with varying concentrations of CAD-31, and half-maximal effective concentration (EC50) was determined on the basis of cell viability.
• An assay that mimics the dramatic loss of neurotrophic support in the old brain is the trophic factor withdrawal assay. Primary embryonic day 18 cortical cells are plated at low density in serum-free medium. At low density, the cells die within 2 days; they can be rescued by combinations of neurotrophic growth factors, but not by one alone ([19] and unpublished data). […] BDNF is a molecule that is also involved in promoting memory and neurogenesis and is reduced in the brain with age and in AD, as well as in other neurological disorders. BDNF has long been considered a drug target for AD [23]. […] A reduction in GSH is a common denominator of old age and essentially all chronic central nervous system (CNS) diseases. J147 and CAD-31 both effectively reduce oxidative stress, with EC50 of 6 nM and 20 nM, respectively. • CAD-31 also prevents loss of energy metabolism that leads to neuron cell death in an in vitro ischemia model. […]

APPswe/PS1∆E9 mice = assay: Open-field assay; format: in vivo; settings: old mice, 200 ppm in chow for 3 months; data not shown
Aβ plaque = system: Aβ plaque; design: method as in PMID 27149904; settings: early study; cited from earlier work
CYP 1A2 = CYP 1A2 (Homo sapiens, UniProt P05177); assay: CYP inhibition; format: in vitro ADME
[5] = mice fed ad libitum, 200 ppm in chow (about 10 mg/kg/day)

Sequence of hERG (Q12809 whole entry): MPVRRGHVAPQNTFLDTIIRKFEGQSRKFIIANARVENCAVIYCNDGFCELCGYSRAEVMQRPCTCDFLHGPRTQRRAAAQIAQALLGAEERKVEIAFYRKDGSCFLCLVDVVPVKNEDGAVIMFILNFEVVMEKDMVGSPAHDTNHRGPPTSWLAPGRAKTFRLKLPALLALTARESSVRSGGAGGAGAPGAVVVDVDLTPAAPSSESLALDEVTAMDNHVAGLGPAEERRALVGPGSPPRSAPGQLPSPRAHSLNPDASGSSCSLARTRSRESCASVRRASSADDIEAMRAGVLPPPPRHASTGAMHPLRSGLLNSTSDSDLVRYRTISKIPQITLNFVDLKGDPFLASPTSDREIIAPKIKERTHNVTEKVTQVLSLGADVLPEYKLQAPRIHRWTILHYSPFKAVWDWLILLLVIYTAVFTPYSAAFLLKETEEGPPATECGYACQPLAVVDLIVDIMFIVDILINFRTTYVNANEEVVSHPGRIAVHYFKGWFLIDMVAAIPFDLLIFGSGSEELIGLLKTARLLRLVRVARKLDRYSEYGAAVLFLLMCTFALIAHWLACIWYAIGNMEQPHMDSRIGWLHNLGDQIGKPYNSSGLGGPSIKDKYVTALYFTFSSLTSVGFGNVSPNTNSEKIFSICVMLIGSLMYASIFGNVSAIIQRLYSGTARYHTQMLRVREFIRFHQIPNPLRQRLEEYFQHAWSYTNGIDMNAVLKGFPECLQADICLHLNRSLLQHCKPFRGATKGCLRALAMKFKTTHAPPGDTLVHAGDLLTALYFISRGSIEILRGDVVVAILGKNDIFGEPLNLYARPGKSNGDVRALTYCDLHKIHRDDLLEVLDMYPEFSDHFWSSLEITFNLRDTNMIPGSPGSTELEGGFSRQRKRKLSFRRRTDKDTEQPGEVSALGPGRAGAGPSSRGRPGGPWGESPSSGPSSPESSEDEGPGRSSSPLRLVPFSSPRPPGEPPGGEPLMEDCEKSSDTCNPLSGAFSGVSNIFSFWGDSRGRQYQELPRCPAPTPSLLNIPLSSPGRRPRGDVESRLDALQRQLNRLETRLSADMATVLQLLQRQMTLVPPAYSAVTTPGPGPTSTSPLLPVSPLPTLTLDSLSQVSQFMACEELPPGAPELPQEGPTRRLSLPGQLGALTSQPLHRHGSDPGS
Sequence of CYP 2Cb (P11712 whole entry): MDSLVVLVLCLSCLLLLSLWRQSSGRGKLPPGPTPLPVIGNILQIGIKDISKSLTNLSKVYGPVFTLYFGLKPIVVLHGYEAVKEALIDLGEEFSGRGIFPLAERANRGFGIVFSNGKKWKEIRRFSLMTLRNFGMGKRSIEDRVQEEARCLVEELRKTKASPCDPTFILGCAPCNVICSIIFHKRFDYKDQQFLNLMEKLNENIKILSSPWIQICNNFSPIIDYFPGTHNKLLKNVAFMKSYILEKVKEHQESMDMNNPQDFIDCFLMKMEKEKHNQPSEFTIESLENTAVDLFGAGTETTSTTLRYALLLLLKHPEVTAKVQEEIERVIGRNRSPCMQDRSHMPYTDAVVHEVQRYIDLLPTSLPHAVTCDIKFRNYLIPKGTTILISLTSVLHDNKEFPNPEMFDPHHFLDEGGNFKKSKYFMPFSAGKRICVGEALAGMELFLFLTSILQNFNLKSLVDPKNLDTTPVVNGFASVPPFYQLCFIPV
Sequence of CYP 1A2 (P05177 whole entry): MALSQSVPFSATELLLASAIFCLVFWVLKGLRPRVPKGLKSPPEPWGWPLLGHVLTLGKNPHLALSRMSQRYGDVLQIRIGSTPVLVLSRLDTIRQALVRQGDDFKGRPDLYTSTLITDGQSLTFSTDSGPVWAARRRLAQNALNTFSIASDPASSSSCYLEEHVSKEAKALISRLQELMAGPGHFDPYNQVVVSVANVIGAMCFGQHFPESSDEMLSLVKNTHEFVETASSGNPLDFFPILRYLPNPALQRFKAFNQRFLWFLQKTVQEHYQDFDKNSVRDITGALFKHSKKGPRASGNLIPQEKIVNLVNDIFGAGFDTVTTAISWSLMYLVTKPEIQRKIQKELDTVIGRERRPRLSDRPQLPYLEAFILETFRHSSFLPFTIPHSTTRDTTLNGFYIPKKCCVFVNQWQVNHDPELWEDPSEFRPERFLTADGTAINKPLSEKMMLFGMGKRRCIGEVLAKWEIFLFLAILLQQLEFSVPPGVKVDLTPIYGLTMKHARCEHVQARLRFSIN

Cc1ccc(N(/N=C/c2cccc(OC(F)(F)F)c2)C(=O)C(F)(F)F)c(C)c1 [CAD-31]
maximum brain concentration, free-fed [1, 5]: 53 nM | maximum plasma concentration, free-fed [1, 5]: 82 nM | Free-Fed ~10 mg/kg/day Brain ([1]; mice, 200 ppm in food): 0.053 µM | Free-Fed ~10 mg/kg/day Plasma ([1]; mice, 200 ppm in food): 0.082 µM | neurogenic activity [2]: enhanced neurogenic activity over J147 | escape latency, hidden platform trial T1 [3]: significantly reduces the escape latency relative to AD mice to control levels | activity in the hERG assay (hERG; 10 μM): showed no sign of acute toxicity or activity | EC50 at 10 µM (hERG; human): > 10 µM | interaction with known protein kinases (protein kinases; 10 μM): did not interact | EC50 (protein kinases; all kinases): > 10 µM | EC50 at 10 µM (CYP 2Cb): > 10 µM | number of significant genes changed ([4]; AD model, CAD-31-treated vs AD): 730 | number of significant genes changed ([4]; WT model, CAD-31-treated vs control): 29 | EC50 (primary cortical neurons): 0.02 µM | open-field assay, overt toxicity (APPswe/PS1∆E9 mice): no differences between groups | Aβ plaque density or size (Aβ plaque): no effect on Aβ plaque density or size | EC50 at 10 µM (CYP 1A2): > 10 µM
